{"source": "patent US8129345B2", "about": "“MUC1-IκB kinase complexes and their activities” (Dana-Farber Cancer Institute, Inc., priority 2006, dated 2012)", "key": {"MCF-10A cells": {"system": "MCF-10A cells", "assay": "TNFα stimulation of MCF-10A cells, immunoprecipitation and immunoblotting of fractions", "assay_type": "cell-based, Human", "conditions": "20 ng/ml TNFα", "method": "FIG. 10B is a pair of photographs of immunoblots. Lysates from MCF-10A cells left untreated (0) or stimulated with 20 ng/ml TNFα for the indicated times (0.5, or 2 hours) were immunoprecipitated with anti-IKKβ (left) or anti-IKKγ (right). The immunoprecipitates were immunoblotted with antibodies specific to MUC1-C, and either IKKβ (left panel) or IKKγ (right panel) as loading controls. The molecular weights of proteins (as indicated on the left of the photographs) are expressed as kilodaltons (kDa).\nFIG. 10C is a series of photographs of immunoblots. MCF-10A cells were left untreated (0) or stimulated with 20 ng/ml TNFα for the indicated times. Cytosolic and nuclear fractions of the cells were prepared and subjected to immunoblotting with the indicated antibodies. The molecular weights of proteins (as indicated on the left of the photographs) are expressed as kilodaltons (kDa).\n(§1) Cell culture. Human HCT116 colon carcinoma cells, HeLa cervical carcinoma cells and MCF-7 breast cancer cells were grown in Dulbecco's modified Eagle's medium with 10% heat-inactivated fetal bovine serum, 100 units/ml penicillin, […] streptomycin and 2 mM L-glutamine. Human ZR-75-1 breast cancer cells were grown in RPMI1640 medium containing 10% heat-inactivated fetal bovine serum, antibiotics and L-glutamine. Human MCF-10A breast epithelial cells were grown in mammary epithelial cell growth media (MEGM; Cambrex Corp.).\nSubcellular fractionation. Nuclear and cytosolic fractions were prepared as described in Kharbanda et al. (1996) Cancer Res. 56:3617-3621.\n(§2) Immunoprecipitation and immunoblotting. Lysates from subconfluent cells were prepared as described in Ren et al. (2004) Cancer Cell 5:163-175. Soluble proteins were incubated with anti-IKKβ (Cell Signaling Technology) or anti-IKKγ (Santa Cruz Biotechnology) for 2 h at 4° C. […] The immune complexes were detected with horseradish peroxidase-conjugated secondary (anti-IgG) antibodies (Amersham Biosciences) and enhanced chemiluminescence (ECL; Amersham Biosciences). […]"}, "MCF-7 cells": {"system": "MCF-7 cells", "assay": "TNFα treatment of MCF-7 cells, MUC1-C binding to IKKs", "assay_type": "cell-based, Human", "method": "as §1, §2"}}, "data": [{"substance": "TNFα", "values": [{"measurement": "phosphorylation and degradation of IκBα", "setting": "MCF-10A cells; MCF-10A cytosolic fractions", "value": "associated with phosphorylation and degradation of IκBα"}, {"measurement": "targeting of NF-κB p65 to the nucleus", "setting": "MCF-10A cells; MCF-10A nuclear fractions", "value": "targeting of NF-κB p65 to the nucleus"}, {"measurement": "binding of MUC1-C to IKKβ and IKKγ", "setting": "MCF-10A cells; MCF-10A", "value": "increased binding"}, {"measurement": "binding of MUC1-C to IKKβ or IKKγ", "setting": "MCF-7 cells", "value": "no apparent effect"}]}]}
